What was measured:
[1] = tested on: MyHC (myosin heavy chain), a marker of muscle regeneration, in muscle tissue; test: MyHC immunohistochemical staining in muscle tissue of muscle disease mouse model after injection of treated P18 cells; type: in vivo; conditions: P18 cells treated with 160 μM for 72 hours, injected via tail vein, mdx mouse, one week after injection
Description: Specifically, the muscle disease mouse model used was C57BL/10ScSn-Dmdmdx/J (mdx mouse) , and C57BL/10J with the same genetic background was used as a control group. All experiments were conducted using mice aged 4 to 5 months. The cells to be injected were human umbilical cord-derived young mesenchymal stem cells (control group) (P5) and replicative senescence model (P18). More specifically, the replicative senescence model (P18) was treated with 160 μM nervonic acid or an equivalent amount of DMSO for 72 hours during culture at P18 and then dissociated as single cells with 0.25% Trypsin/EDTA (Gibco, MT, USA), and 5×10^4 cells per mouse were injected via the tail vein. One week after injection, both tibial muscles of the mouse model were harvested and fixed in 4% paraformaldehyde or frozen.
Example 10. […]
In order to assess the extent of muscle regeneration in the muscle tissue of a muscle disease mouse model after injecting mesenchymal stem cells for each condition, the extent of muscle regeneration in the tissue was determined through immunohistochemical staining for MyHC (myosin heavy chain), a marker of muscle regeneration. […]

[2] = tested on: senescence markers P16 and P21; test: qRT-PCR of senescence markers P16 and P21 in replicative senescence model (P18); type: cell-based, human; conditions: 160 μM, 3 days
Description: In order to verify the anti-senescence efficacy of nervonic acid, the expression levels of senescence-related markers in a control group (P5) and a replicative senescence model (P18) were measured after treatment with nervonic acid (160 μM).
(§1) Specifically, qRT-PCR performed in this example is as follows: after treating the replicative senescence model (P18) with nervonic acid for 3 days, total RNA was extracted using Trizol (Invitrogen, MA, USA) according to the method provided by the vendor. After quantifying the extracted total RNA, random hexamer and dNTP were added, and PCR was performed at 65° C. for 5 minutes. 5× SSIV buffer, 100 mM DTT, RNAse OUT, and Superscript IV RT were added and reverse transcription was performed to synthesize cDNA, and then qRT-PCR was performed to measure gene expression, and the expression levels were compared through 2^−ΔΔCt analysis.

[3] = tested on: senescence markers P16 and P21; test: qRT-PCR of senescence markers p16 and p21 at P10 after treatment at each passage; type: cell-based, human; conditions: 160 μM for 24 hours at each passage
Description: as §1
(§2) Example 8. Confirmation Of anti-senescence efficacy by treating various human tissue-derived mesenchymal stem cells with nervonic acid Human-derived mesenchymal stem cells were treated with nervonic acid (160 μM) at each passage during cell culture from control cells (P5) to P10 to determine whether continuous treatment with nervonic acid during cell culture at early passage numbers was able to delay cellular senescence.
Specifically, from the day after human-derived mesenchymal stem cells were subcultured, treatment with 160 μM nervonic acid or an equivalent amount of DMSO (control) for 24 hours was performed, followed by replacement with the existing culture medium the next day. The above process was repeated to perform subculture up to P10 (passage 10). […]

[4] = tested on: human adipose-derived mesenchymal stem cells (AD-MSCs/passage 18); test: β-galactosidase staining, senescent AD-MSCs; type: cell-based; conditions: AD-MSCs passage 18, 3 days
Text: Human placenta-derived mesenchymal stem cells (pl-mscs) Were Isolated From Placentas Separated according to the previously reported method of Choi et al. (PLOS ONE, (2017) 12 (2): e0172642), umbilical cord blood-derived mesenchymal stem cells (UCB-MSCs) were isolated from the umbilical cord blood separated according to the method of Kim et al. (FEBS Letters, (2010) 584:3601-3608), and adipose tissue-derived mesenchymal stem cells (AD-MSCs) were isolated from adipose tissue separated according to the previously reported method of Palumbo et al. (Int. J. Mol. Sci. (2018) 19:1987).
Each of the obtained mesenchymal stem cells was subcultured in aMEM (a-modified Minimum Essential Media) containing 10% fetal bovine serum (FBS) and 0.5% gentamicin (10 mg/ml).
The replicative senescence models of human adipose-derived mesenchymal stem cells (AD-MSCs/passage 18), human bone marrow-derived mesenchymal stem cells (BM-MSCs/passage 15), human umbilical cord blood-derived mesenchymal stem cells (UCB-MSCs/passage 16), and human placenta-derived mesenchymal stem cells (PL-MSCs/passage 18) established as described above were treated with nervonic acid for 3 days, and β-galactosidase staining was performed to observe the extent of senescence.

[5] = tested on: human-derived mesenchymal stem cells, control cells (P5) subcultured to P10; test: β-galactosidase staining during serial subculture P5 to P10 with treatment at each passage; type: cell-based; conditions: 160 μM for 24 hours at each passage
Description: as §2
Specifically, from the day after human-derived mesenchymal stem cells were subcultured, treatment with 160 μM nervonic acid or an equivalent amount of DMSO (control) for 24 hours was performed, followed by replacement with the existing culture medium the next day. The above process was repeated to perform subculture up to P10 (passage 10). As such, B galactosidase staining for measuring cellular senescence was performed at P7, P8, P9, and P10, and cell doubling time and RNA extraction for qRT-PCR were both performed at P10. A more specific procedure therefor was carried out in the same manner as described above.

[6] = tested on: control cells (P5), human umbilical cord-derived mesenchymal stem cells; test: Cell proliferation by CCK-8 assay, 6 days, control cells (P5); type: cell-based; conditions: 160 μM
Description: Example 4. Validation of gut microbiota-derived metabolite candidate for senescence control Control cells (P5) and replicative senescence-induced human umbilical cord-derived mesenchymal stem cells (P18) were treated with nervonic acid (160 μM) to analyze the effects of the gut microbiota-derived metabolite having the ability to control senescence of stem cells on the proliferation of stem cells and cell size.
Specifically, control cells (p5) and replicative senescence-induced human umbilical cord-derived mesenchymal stem cells (P18) were exposed to nervonic acid (160 μM) in culture medium, followed by culture for 6 days while replacing the medium every 3 days, and cell proliferation was assessed using CCK-8 assay.

Which results are given for `CCCCCCCC/C=C\CCCCCCCCCCCCCC(=O)O` [nervonic acid]?
MyHC expression level (immunohistochemical staining) compared to injection group treated with DMSO [1]: slightly increased; P16 mRNA level, fold compared to before treatment [2]: 0.78±0.01 fold; P21 mRNA level, fold compared to before treatment [2]: 0.82±0.02 fold; p16 mRNA expression, fold compared to control group (DMSO) [3]: 0.84±0.05 fold; p21 mRNA expression, fold compared to control group (DMSO) [3]: 0.84±0.03 fold; progression of senescence (β-galactosidase staining) compared to control group (DMSO) [4]: progression of senescence was significantly inhibited; extent of senescence (β-galactosidase staining), fold compared to DMSO control at P10 [5]: 0.40±0.07 fold; cell proliferation [6]: no change in proliferation
